This is an account of results in patent US10695352B2, “Combination therapy for treating malignancies” (Celgene Corporation, priority 2015, dated 2020).

Like-named read-outs stand apart in the source and are kept apart here.

One data set concerns TF-1 R140Q cells. As to the kind of experiment: Real-time growth and apoptosis (Caspase 3/7 dye) on IncuCyte Zoom. The format is cell-based. As to conditions: for cell growth: COMPOUND 1 1-10 μM. How it is done:
The TF-1 R140Q cells were pre-treated in bulk in flasks with 1 μM of QDx3 azacitidine and then plated with COMPOUND 1 concentrations of 10, 3 and 0.3 μM and Caspase 3/7 dye (obtained from Essen Biosciences) to monitor real-time growth and apoptosis on IncuCyte Zoom up to 104 hrs.
The TF-1 R140Q cells were plated with the combination of azacitidine (1 and 0.3 μM) and COMPOUND 1 (1 μM) and imaged for real-time growth and apoptosis on IncuCyte Zoom up to 104 hrs.
A real-time death analysis was performed using IncuCyte Zoom (FIGS. 5 and 6).

The subject of data set [1] is TF1 IDH2/R140Q cells. The settings on record: for hemoglobin production (coloration/hemoglobinization of cell pellets): day 14, COMPOUND 1 0.2 and 1 μM, azacitidine 0.1 and 0.3 μM; for hemoglobin production (red color of cell pellets): day 18, COMPOUND 1 0.2 μM and 1.0 μM. An excerpt: FIG. 1 in section A depicts COMPOUND 1 and azacitidine (AZA) combination schedule and dosing paradigms for sequential treatment of: 3 days (QDx3) of pre-treatment with azacitidine followed by treatment with the COMPOUND 1 for one week and erythropoietin (EPO)+COMPOUND 1 for another week. The cells were harvested on Day 18 and subjected to various endpoint assays for monitoring differentiation and death. FIG. 1, in section B depicts COMPOUND 1 and azacitidine combination schedule and dosing paradigms for concurrent treatment of: treatment for 7 days with the combination of azacitidine and COMPOUND 1 followed by 7 days of the treatment with azacitidine, COMPOUND 1 and EPO. The cells were harvested on Day 14 and subjected to various endpoint assays for monitoring differentiation and death.
(§1) Measures of cell differentiation, growth and death were evaluated in an engineered TF-1 erythroleukemia cells overexpressing the IDH2/R140Q allele or the empty vector control TF-1/pLVX (Wang et al., Science 340:622-626, 2013). The cells were grown in RPMI containing HEPES and L-glutamine (Lonza 12-115F), 10% FBS (HyClone SH30088.03), Pen/Strep (Life Technologies 15070-063), G418: final concentration 500 μg/ml (Life Technologies 10131-027); GM-CSF: final concentration 5 ng/ml (R&D 215-GM-050). Only newly grown cells were used. G418 and GM-CSF were added fresh to media each time cells were passaged. Media was changed every 2-3 days by pelleting cells and resuspending in fresh media or by adding 2 ml of cells to 10 ml of fresh media. When cells were treated with a compound, the media was changed by pelleting cells to ensure proper concentration of the compound.
F1/pLVX and TF1 IDH2/R140Q cells (100,000 cells/ml) were pretreated for 7 days with COMPOUND 1, azacitidine or combination thereof (medium was changed every 2 days) and washed with PBS to remove residual GM-CSF. Cells were induced to differentiate using EPO (2 unit/ml) in the presence or absence of COMPOUND 1. Induction continued for 7 days and the cell pellets were collected and imaged for hemoglobinization content (as a surrogate for differentiation into blood lineage).
(§2) Measures of cell differentiation, growth and death were evaluated in TF1-R140Q cells, using an in vitro EPO differentiation assay and dose-schedule paradigms represented in FIG. 1. Cells were treated with vehicle, azacitidine alone, COMPOUND 1 alone, or the combination of azacitidine and COMPOUND 1. In the sequential schedule, cells were pre-treated with azacitidine for three days before adding COMPOUND 1. In the concurrent schedule, cells were co-treated with azacitidine and COMPOUND 1 throughout the assay.

Data set [2] relates to TF1 IDH2/R140Q cells. As to conditions: for RNA expression of differentiation markers KLF1 and HBG: concurrent schedule; for increase in HBG gene expression: COMPOUND 1 0.2 μM, single agents or combination. How it is done:
FIG. 2A depicts the effect of the combination of azacitidine and COMPOUND 1 used sequentially on differentiation markers. […] Treated cells were subjected to qRT-PCR (ii) and to HBG qRT-PCR (iii). FIG. 2B depicts the effect of the combination of azacitidine and COMPOUND 1 used concurrently on differentiation markers. […] Treated cells were subjected to qRT-PCR (ii) and to HBG qRT-PCR (iii).
as §1
The RNA was isolated from cells by RNA easy kit (obtained from Qiagen). 500 ng of RNA was used to make cDNA that was subjected to real-time qPCR to detect fetal hemoglobin (HBG) and KLF-1 gene expression. The RNA easy kit was obtained from Qiagen. cDNA was made from Superscript VILO kit (Life technologies). Taqman probes were obtained from Applied Biosciences.
as §2

Data set [3] relates to TF1-R140Q cells. As to the kind of experiment: Annexin V/7-AAD flow cytometry cell death analysis. It is filed as cell-based. The settings on record: concurrent dose-schedule regimen; average values across dose concentrations. How it is done:
Annexin V and 7-AAD flow cytometry analysis was performed for sequential (day 18) and concurrent (day 14) dosing schedules. Populations were normalized to DMSO+EPO and fold change of percent Annexin V+ and/or 7-AAD+ was plotted.
Cell death was analyzed via Annexin V/7-AAD flow cytometry at the end of the EPO-differentiation assay (FIGS. 4 and 9). In the sequential dose-schedule regimen, there was no induction (<2-fold) of death (AnnexinV+ and/or 7AAD+) with a single agent. In the concurrent dose-schedule regimen, azacitidine and COMPOUND 1 as single agents increased the percentage of AnnexinV+ and/or 7AAD+ cells by 3.4-fold and 3.5-fold (average values across dose concentrations), respectively.
In general terms: Flow cytometry measures light scatter and fluorescence of single cells or particles in a stream.

Data set [4] relates to TF1-R140Q cells. As to the kind of experiment: Hematopoietic stem cell and blast content determination (CD34, CD38, FACS). It is filed as cell-based. As to conditions: for CD34+/CD38+ and CD34+/CD38− cell populations: end of EPO-differentiation assay; for decrease of hematopoietic progenitor cells (CD34+/CD38+): sequential treatment, COMPOUND 1 0.2 μM, azacitidine 0.1 μM, single agents or combination. How it is done: Flow cytometry analysis was performed for sequential and concurrent schedules. Hematopoietic progenitor cells (CD34+/CD38+) (i) and stem cells (CD34+/CD38−) (ii) populations were normalized to DMSO+EPO and plotted. Values for population percentage decreases are shown, with those in red font depicting greater than additive effect with the combination as compared to AZA or COMPOUND 1 as single agents.
Cells were blocked in 10×BSA and diluted with MACS rinsing solution to 1× concentration for 15 min (staining buffer, BD Biosciences). Supernatant was removed by spinning. 10 μl of anti-CD34 FITC and anti-CD38 APC antibodies (each in staining buffer) were added. Mouse IgG2a FITC and IgG2a APC were used as isotype controls. Cells were stained for 10 min in dark, the solution was spinned to remove supernatant, the cells were resuspended in 300 μl of staining buffer and proceed to fluorescence-activated cell sorting (FACS).
The hematopoietic stem (CD34+/CD38−) and progenitor (CD34+/CD38+) cell populations were quantified at the end of the EPO-differentiation assay (FIGS. 3 and 8). As single agents, both azacitidine and COMPOUND 1 reduced CD34+/CD38+(FIG. 3i) and CD34+/CD38− (FIG. 3ii) cell populations. […] For example, COMPOUND 1 (0.2 μM) and azacitidine (0.1 μM) as single agents decreased hematopoietic progenitor cells (CD34+/CD38+) by 32% and 7%, respectively, with sequential treatment, while the combination of azacitidine (0.1 μM) and COMPOUND 1 (0.2 μM) decreased the hematopoietic progenitor cell population by 64% (FIG. 3i).

For data set [5] the following is noted: cited from earlier work.
The conditions of data set [6]: oral azacitidine; cited from earlier work.
Setting [7] is: sequential experiment, azacitidine 1 μM.

For `CC(C)(O)CNc1nc(Nc2ccnc(C(F)(F)F)c2)nc(-c2cccc(C(F)(F)F)n2)n1` [COMPOUND 1, 2-methyl-1-[(4-[6-(trifluoromethyl)pyridin-2-yl]-6-{[2-(trifluoromethyl)pyridin-4-yl]amino}-1,3,5-triazin-2-yl)amino]propan-2-ol], in the data set on TF-1 R140Q cells (setting [7]), the cell growth result is “no effect on cell growth”. For the same compound, the “caspase 3/7 death measure” value in the data set with TF-1 R140Q cells (summary, single agent, or concurrent combination) was “no effect”. In the data set on TF1 IDH2/R140Q cells [1] (concurrent dosing regimen), the “hemoglobin production (coloration/hemoglobinization of cell pellets)” value is “increased hemoglobin production upon EPO differentiation in a dose-dependent manner”. Besides, in the data set with TF1 IDH2/R140Q cells [1] (sequential schedule), the “time to observe increased red color of cells (haem production) post-EPO” value was 7 days and the “hemoglobin production (red color of cell pellets)” value is “increased hemoglobin production in a dose-dependent manner”. Also, the “RNA expression of differentiation markers KLF1 and HBG” value in the data set on TF1 IDH2/R140Q cells [2] was “Dose-dependent increases”. Also, in the data set with TF1 IDH2/R140Q cells [2] (concurrent, azacitidine 1 μM), the “increase in HBG gene expression” value turned out to be 2.5 fold. For the same compound, the “increase in HBG gene expression” value in the data set on TF1 IDH2/R140Q cells [2] (sequential, azacitidine 0.3 μM) amounted to 241 fold. In addition, in the data set on TF1-R140Q cells [3], the “increase in percentage of AnnexinV+ and/or 7AAD+ cells” value stood at 3.5 fold. For the same compound, in the data set on TF1-R140Q cells [4], the “CD34+/CD38+ and CD34+/CD38− cell populations” value is “reduced”; the “decrease of hematopoietic progenitor cells (CD34+/CD38+)” value was determined as 32%.

As to `Nc1ncn([C@H]2C[C@H](O)[C@@H](CO)O2)c(=O)n1` [Decitabine, 4-amino-1-(2-deoxy-β-D-erythro-pentofuranosyl)-1,3,5-triazin-2(1H)one], the solubility entry is on record as “soluble” in data set [5] (dimethylsulfoxide (DMSO)); “slightly soluble” in data set [5] (ethanol/water (50/50), methanol/water (50/50) and methanol); “sparingly soluble” in data set [5] (water).

`Nc1ncn([C@@H]2O[C@H](CO)[C@@H](O)[C@H]2O)c(=O)n1` [azacitidine, 4-amino-1-O-D-ribofuranozyl-s-triazin-2(1H)-one]: in the data set on TF-1 R140Q cells (setting [7]), the cell growth entry is reported as “reduced growth”. For the same compound, the apoptosis entry in the data set on TF-1 R140Q cells (setting [7]) is given as “increased apoptosis”. Also, the solubility entry in data set [5] (acetone, ethanol and methyl ketone) was “insoluble”; in data set [5] (dimethylsulfoxide (DMSO)), “soluble”; in data set [5] (ethanol/water (50/50), propylene glycol and polyethylene glycol) it was “slightly soluble”; in data set [5] (water, water-saturated octanol, 5% dextrose in water, N-methyl-2-pyrrolidone, normal saline and 5% Tween 80 in water), “sparingly soluble”. For the same compound, the “hemoglobin production (coloration/hemoglobinization of cell pellets)” value in the data set on TF1 IDH2/R140Q cells [1] (concurrent dosing regimen) is listed as “increased hemoglobin production”. In addition, the “cell death as evidenced by decreased cell pellet sizes” value in the data set with TF1 IDH2/R140Q cells [1] (concurrent dosing regimen, azacitidine 1 μM) was “cell death occurred”. In addition, the “hemoglobin production (red color of cell pellets)” value in the data set with TF1 IDH2/R140Q cells [1] (sequential schedule) was “little or no effect on cell pellet color”. Further, the maximum tolerated dose in data set [6] is 480 mg. Moreover, the “RNA expression of differentiation markers KLF1 and HBG” value with TF1 IDH2/R140Q cells [2] is given as “Dose-dependent increases”. Also, the “increase in HBG gene expression” value in the data set on TF1 IDH2/R140Q cells [2] (concurrent, azacitidine 1 μM) is reported as 7.1 fold; in the data set with TF1 IDH2/R140Q cells [2] (sequential, azacitidine 0.3 μM) it was 92 fold. For the same compound, in the data set on TF1-R140Q cells [3], the “increase in percentage of AnnexinV+ and/or 7AAD+ cells” value turned out to be 3.4 fold. In addition, in the data set with TF1-R140Q cells [4], the “CD34+/CD38+ and CD34+/CD38− cell populations” value is given as “reduced”. The “decrease of hematopoietic progenitor cells (CD34+/CD38+)” value in the data set with TF1-R140Q cells [4] turned out to be 7%.
